Test results as given in PubChem BioAssay (NCI).
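Five compound concentrations were applied to cells in 96-well plates for 48 hours; endpoints were derived by simple linear interpolation of the resulting dose-response curve. GI50 = concentration required for 50% inhibition of growth. The concentration for full growth arrest is given as TGI.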

How the values were obtained:
Test in all cases: growth of human tumour cells (NCI), 48 h
[1] = test system: CCRF-CEM leukemia
[2] = test system: HCC-2998 colon
[3] = test system: HCT-116 colon
[4] = test system: HL-60(TB) leukemia
[5] = test system: HOP-92 NSCLC
[6] = test system: HS 578T breast
[7] = test system: IGROV1 ovarian
[8] = test system: K-562 leukemia
[9] = test system: MOLT-4 leukemia
[10] = test system: NCI-H23 lung
[11] = test system: NCI-H522 lung
[12] = test system: NCI/ADR-RES ovarian
[13] = test system: RXF 393 renal
[14] = test system: SF-268 CNS
[15] = test system: SK-MEL-2 melanoma
[16] = test system: SNB-19 CNS
[17] = test system: SNB-75 CNS
[18] = test system: ACHN renal
[19] = test system: CAKI-1 renal
[20] = test system: DU-145 prostate
[21] = test system: EKVX NSCLC
[22] = test system: HCT-15 colon
[23] = test system: HOP-62 NSCLC
[24] = test system: HT29 colon
[25] = test system: KM12 colon
[26] = test system: LOX IMVI melanoma
[27] = test system: MALME-3M melanoma
[28] = test system: MCF7 breast
[29] = test system: MDA-MB-231 breast
[30] = test system: MDA-MB-435
[31] = test system: NCI-H460 lung
[32] = test system: OVCAR-3 ovarian
[33] = test system: OVCAR-4 ovarian
[34] = test system: OVCAR-5 ovarian
[35] = test system: OVCAR-8 ovarian
[36] = test system: PC-3 prostate
[37] = test system: RPMI-8226 leukemia
[38] = test system: SF-295 CNS
[39] = test system: SF-539 CNS
[40] = test system: SK-MEL-5 melanoma
[41] = test system: SK-OV-3 ovarian
[42] = test system: SN12C renal
[43] = test system: SW-620 colon
[44] = test system: T-47D breast
[45] = test system: TK-10 renal
[46] = test system: U251 CNS
[47] = test system: UACC-257 melanoma
[48] = test system: UACC-62 melanoma
[49] = test system: UO-31 renal

In the case of `O=c1cc(-c2ccccc2)oc2cc(OCc3cn(Cc4ccc(F)cc4)nn3)cc(OCc3cn(Cc4ccc(F)cc4)nn3)c12`, the GI50 [1] is reported as > 100 µM, the TGI [1] is reported as > 100 µM and the GI50 [2] is reported as > 100 µM. For the same molecule, the TGI [2] was > 100 µM, the GI50 [3] was 3.52 µM and the TGI [3] was > 100 µM. The GI50 [4] was > 100 µM, the TGI [4] was > 100 µM and the GI50 [5] was 1.89 µM. The TGI [5] was 5.52 µM, the GI50 [6] was 3.28 µM and the TGI [6] was > 100 µM. The GI50 [7] was 4.45 µM, the TGI [7] was > 100 µM and the GI50 [8] was > 100 µM. The TGI [8] was > 100 µM, the GI50 [9] was > 100 µM and the TGI [9] was > 100 µM. The GI50 [10] was 3.7 µM, the TGI [10] was > 100 µM and the GI50 [11] was 3.66 µM. The TGI [11] was > 100 µM, the GI50 [12] was > 100 µM and the TGI [12] was > 100 µM. It also gave a GI50 [13] of 1.78 µM, a TGI [13] of 4.5 µM and a GI50 [14] of 3.52 µM. The TGI [14] was > 100 µM, the GI50 [15] was 4.49 µM and the TGI [15] was 33.1 µM. The GI50 [16] was 4.55 µM, the TGI [16] was > 100 µM and the GI50 [17] was 1.69 µM. For the same molecule, the TGI [17] was 4.85 µM.
For `COc1ccc2c3c([nH]c2c1)C(=O)c1nc(C)ccc1C3=O`, the GI50 [18] was 2.55 µM, the TGI [18] was > 100 µM and the GI50 [19] was 3.82 µM. For the same molecule, the TGI [19] was > 100 µM, the GI50 [1] was 3.69 µM and the TGI [1] was > 100 µM. For the same molecule, the GI50 [20] was 1.7 µM, the TGI [20] was 3.24 µM and the GI50 [21] was 2.68 µM. For the same molecule, the TGI [21] was > 100 µM, the GI50 [2] was 3.81 µM and the TGI [2] was > 100 µM. The GI50 [22] was 1.94 µM, the TGI [22] was > 100 µM and the GI50 [4] was 2.79 µM. The TGI [4] was > 100 µM, the GI50 [23] was 3.5 µM and the TGI [23] was > 100 µM. The GI50 [5] was 20.7 µM, the TGI [5] was > 100 µM and the GI50 [6] was 13.6 µM. The TGI [6] was > 100 µM, the GI50 [24] was 3.88 µM and the TGI [24] was > 100 µM. The GI50 [7] was 0.326 µM, the TGI [7] was > 100 µM and the GI50 [8] was 3.31 µM. For the same molecule, the TGI [8] was > 100 µM, the GI50 [25] was 4.95 µM and the TGI [25] was > 100 µM. The GI50 [26] was 2.24 µM, the TGI [26] was > 100 µM and the GI50 [27] was 0.331 µM. The TGI [27] was 1.65 µM, the GI50 [28] was 1.98 µM and the TGI [28] was > 100 µM. For the same molecule, the GI50 [29] was 3.33 µM, the TGI [29] was > 100 µM and the GI50 [30] was 1.78 µM. For the same molecule, the TGI [30] was 3.19 µM, the GI50 [9] was 2.63 µM and the TGI [9] was > 100 µM. It also gave a GI50 [10] of 1.08 µM, a TGI [10] of 4.07 µM and a GI50 [31] of 1.02 µM. For the same molecule, the TGI [31] was 3.28 µM, the GI50 [11] was 3.83 µM and the TGI [11] was > 100 µM. The GI50 [12] was 2.75 µM, the TGI [12] was > 100 µM and the GI50 [32] was 1.62 µM. The TGI [32] was 7.05 µM, the GI50 [33] was 2.06 µM and the TGI [33] was > 100 µM. The GI50 [34] was 4.42 µM, the TGI [34] was > 100 µM and the GI50 [35] was 3.35 µM. The TGI [35] was > 100 µM, the GI50 [36] was 2 µM and the TGI [36] was > 100 µM. For the same molecule, the GI50 [37] was 2.91 µM, the TGI [37] was > 100 µM and the GI50 [13] was 7.3 µM. For the same molecule, the TGI [13] was > 100 µM, the GI50 [14] was 7.8 µM and the TGI [14] was > 100 µM. The GI50 [38] was 1.21 µM, the TGI [38] was 2.64 µM and the GI50 [39] was 3.75 µM. For the same molecule, the TGI [39] was > 100 µM, the GI50 [15] was 7.04 µM and the TGI [15] was > 100 µM. The GI50 [40] was 0.792 µM, the TGI [40] was 2.2 µM and the GI50 [41] was > 100 µM. For the same molecule, the TGI [41] was > 100 µM, the GI50 [42] was 3.24 µM and the TGI [42] was > 100 µM. The GI50 [16] was 2.61 µM, the TGI [16] was > 100 µM and the GI50 [43] was 3.66 µM. The TGI [43] was > 100 µM, the GI50 [44] was 2.65 µM and the TGI [44] was > 100 µM. The GI50 [45] was > 100 µM, the TGI [45] was > 100 µM and the GI50 [46] was 4.85 µM. The TGI [46] was > 100 µM, the GI50 [47] was 1.48 µM and the TGI [47] was 5.41 µM. For the same molecule, the GI50 [48] was 1.4 µM, the TGI [48] was 3.08 µM and the GI50 [49] was 1.03 µM. The TGI [49] was > 100 µM.
